The source of these data is US11878975B2, “Substituted indole compounds useful as TLR inhibitors” (BRISTOL-MYERS SQUIBB COMPANY, priority 2017, dated 2024).

Format in all cases: cell-based
Test [1] has as its target T1, human TLR7 (Homo sapiens, UniProt Q9NYK1).
T1 construct: host or cells: HEK-Blue cells
T1 sequence (Q9NYK1 27-1049): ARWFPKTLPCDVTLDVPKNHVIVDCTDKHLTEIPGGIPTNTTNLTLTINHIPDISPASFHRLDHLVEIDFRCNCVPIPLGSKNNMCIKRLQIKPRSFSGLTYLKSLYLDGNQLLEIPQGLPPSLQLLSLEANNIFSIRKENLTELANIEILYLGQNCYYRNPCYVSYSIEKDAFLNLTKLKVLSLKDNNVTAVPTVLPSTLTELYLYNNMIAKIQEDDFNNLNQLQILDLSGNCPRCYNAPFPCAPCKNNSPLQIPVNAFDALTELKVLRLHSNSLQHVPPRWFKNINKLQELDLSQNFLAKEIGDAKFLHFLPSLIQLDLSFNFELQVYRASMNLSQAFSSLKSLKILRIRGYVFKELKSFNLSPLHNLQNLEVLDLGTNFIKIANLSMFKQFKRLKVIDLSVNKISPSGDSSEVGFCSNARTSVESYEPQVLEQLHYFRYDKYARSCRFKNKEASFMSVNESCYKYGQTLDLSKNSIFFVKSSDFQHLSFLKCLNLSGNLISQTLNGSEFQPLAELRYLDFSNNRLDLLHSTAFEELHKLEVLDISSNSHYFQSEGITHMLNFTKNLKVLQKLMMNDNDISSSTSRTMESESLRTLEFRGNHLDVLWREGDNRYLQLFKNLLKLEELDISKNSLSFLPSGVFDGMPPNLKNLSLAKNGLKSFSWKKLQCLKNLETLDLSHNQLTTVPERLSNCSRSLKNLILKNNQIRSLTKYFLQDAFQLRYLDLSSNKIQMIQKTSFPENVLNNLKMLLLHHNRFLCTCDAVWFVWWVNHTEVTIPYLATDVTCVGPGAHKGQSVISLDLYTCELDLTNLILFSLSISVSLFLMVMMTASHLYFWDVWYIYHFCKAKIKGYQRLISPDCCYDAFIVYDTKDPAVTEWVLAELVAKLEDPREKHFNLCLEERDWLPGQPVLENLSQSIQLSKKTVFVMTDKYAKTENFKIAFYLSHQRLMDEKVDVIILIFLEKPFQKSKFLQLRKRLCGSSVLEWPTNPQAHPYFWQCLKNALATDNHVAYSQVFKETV
The test can be described thus: TLR7 inhibition reporter assay (HEK-Blue cells, SEAP reporter, gardiquimod stimulation). The conditions noted are these: HEK-Blue cells overexpressing human TLR7, SEAP reporter, gardiquimod 7.5 μM. Summed up:
(§1)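 HEK-Blue cells with NF-κB/AP-1-driven SEAP reporter, pre-treated 30 min at room temperature with compound (0.05 nM-50 μM). Stimulants: gardiquimod 7.5 μM (TLR7), R848 15.9 μM (TLR8) or ODN2006 5 nM (TLR9). SEAP measured after 22 h at 37° C.; percent inhibition versus agonist-plus-DMSO and known-inhibitor wells.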
Background: Reporter assays use an easily measured gene product as a stand-in for the process of interest.

The target of test [2] is T2, human TLR8 (Homo sapiens, UniProt Q9NR97).
T2 construct: host or cells: HEK-Blue cells
T2 sequence (Q9NR97 27-1041): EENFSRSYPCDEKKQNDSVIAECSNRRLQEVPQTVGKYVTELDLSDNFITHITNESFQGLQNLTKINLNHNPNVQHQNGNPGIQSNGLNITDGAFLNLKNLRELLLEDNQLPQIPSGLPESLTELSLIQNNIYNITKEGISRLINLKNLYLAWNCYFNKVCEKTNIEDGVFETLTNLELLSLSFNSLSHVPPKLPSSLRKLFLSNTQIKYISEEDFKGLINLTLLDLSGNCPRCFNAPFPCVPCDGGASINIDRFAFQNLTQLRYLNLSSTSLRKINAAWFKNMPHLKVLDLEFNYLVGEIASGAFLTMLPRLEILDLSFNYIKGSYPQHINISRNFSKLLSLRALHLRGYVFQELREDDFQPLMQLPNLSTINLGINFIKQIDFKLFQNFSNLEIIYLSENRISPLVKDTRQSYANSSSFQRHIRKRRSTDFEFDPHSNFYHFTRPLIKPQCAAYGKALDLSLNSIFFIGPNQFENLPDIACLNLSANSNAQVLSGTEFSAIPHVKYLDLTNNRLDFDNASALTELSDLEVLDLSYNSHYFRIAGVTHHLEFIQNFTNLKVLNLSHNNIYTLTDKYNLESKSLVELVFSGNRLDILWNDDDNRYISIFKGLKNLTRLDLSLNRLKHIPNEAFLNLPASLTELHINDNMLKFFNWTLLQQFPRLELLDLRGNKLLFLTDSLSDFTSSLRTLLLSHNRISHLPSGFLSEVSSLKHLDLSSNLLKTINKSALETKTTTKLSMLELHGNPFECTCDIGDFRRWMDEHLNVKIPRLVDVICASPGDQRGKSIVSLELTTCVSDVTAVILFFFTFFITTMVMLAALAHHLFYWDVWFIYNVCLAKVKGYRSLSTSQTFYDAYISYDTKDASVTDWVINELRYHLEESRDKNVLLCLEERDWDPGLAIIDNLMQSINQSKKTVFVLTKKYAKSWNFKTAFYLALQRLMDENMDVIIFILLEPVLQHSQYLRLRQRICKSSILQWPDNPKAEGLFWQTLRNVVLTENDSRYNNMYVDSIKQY
The test can be described thus: TLR8 inhibition reporter assay (HEK-Blue cells, SEAP reporter, R848 stimulation). The conditions noted are these: HEK-Blue cells overexpressing human TLR8, SEAP reporter, R848 15.9 μM. Summed up:
as §1

Test [3] concerns the target T3, human TLR9 (Homo sapiens, UniProt Q9NR96).
T3 construct: host or cells: HEK-Blue cells
T3 sequence (Q9NR96 26-1032): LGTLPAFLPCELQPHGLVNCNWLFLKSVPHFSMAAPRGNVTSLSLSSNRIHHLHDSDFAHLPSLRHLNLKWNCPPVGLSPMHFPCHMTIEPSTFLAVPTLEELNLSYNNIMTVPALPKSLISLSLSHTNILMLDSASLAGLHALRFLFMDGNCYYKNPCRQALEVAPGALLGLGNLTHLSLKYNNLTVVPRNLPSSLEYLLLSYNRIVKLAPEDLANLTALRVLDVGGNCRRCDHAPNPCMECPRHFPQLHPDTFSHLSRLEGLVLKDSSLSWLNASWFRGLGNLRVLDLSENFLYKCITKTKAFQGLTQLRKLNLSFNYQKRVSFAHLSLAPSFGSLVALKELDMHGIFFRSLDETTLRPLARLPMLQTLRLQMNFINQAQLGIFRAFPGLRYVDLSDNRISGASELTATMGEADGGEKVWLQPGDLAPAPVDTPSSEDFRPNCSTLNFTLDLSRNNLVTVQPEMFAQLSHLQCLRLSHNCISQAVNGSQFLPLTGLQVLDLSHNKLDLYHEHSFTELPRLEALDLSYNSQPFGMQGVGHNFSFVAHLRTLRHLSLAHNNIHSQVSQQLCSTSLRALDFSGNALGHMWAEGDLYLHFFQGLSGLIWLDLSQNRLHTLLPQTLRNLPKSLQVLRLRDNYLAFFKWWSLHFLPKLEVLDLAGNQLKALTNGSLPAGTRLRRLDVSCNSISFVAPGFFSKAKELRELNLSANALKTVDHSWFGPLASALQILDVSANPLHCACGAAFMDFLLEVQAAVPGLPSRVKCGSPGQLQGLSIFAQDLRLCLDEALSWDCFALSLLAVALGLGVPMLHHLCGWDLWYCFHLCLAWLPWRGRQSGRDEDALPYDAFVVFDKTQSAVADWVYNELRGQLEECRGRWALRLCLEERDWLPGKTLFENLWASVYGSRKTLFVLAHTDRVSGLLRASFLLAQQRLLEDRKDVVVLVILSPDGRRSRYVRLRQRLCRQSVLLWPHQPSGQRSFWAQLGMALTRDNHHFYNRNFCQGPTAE
The test can be described thus: TLR9 inhibition reporter assay (HEK-Blue cells, SEAP reporter, ODN2006 stimulation). To be noted: HEK-Blue cells overexpressing human TLR9, SEAP reporter, ODN2006 5 nM. An outline of the steps:
as §1

pIC50: −log10 of the molar value.

Consider `Cc1cc(-c2[nH]c3ccc(C4CCC(N5CCN(C)CC5)CC4)cc3c2C(C)C)cc(C)n1` (single isomer, unassigned) [Example 37], for which the values for the pIC50 in test [1], in test [2] and in test [3] were 7.54, 7.25 and 6.23, respectively.
For `COc1cc(-c2[nH]c3ccc(C4CCC(NC(=O)CNCC(C)(C)O)CC4)cc3c2C(C)C)cn2ncnc12` (stereo not drawn) [Example 140] the same measures were 9.15, 8.25 and 4.85.
For `Cc1c(-c2[nH]c3ccc(C4CC5CNCC5C4)cc3c2C(C)C)cn2ncnc2c1C` (stereo not drawn) [Example 506] the same measures were 9.00, 7.68 and 5.18.
For `Cc1c(-c2[nH]c3ccc(C4CCC(N)CC4)cc3c2C(C)C)cn2cnnc2c1C` (stereo not drawn) [Example 516] the same measures were 8.52, 7.89 and 6.15.
Regarding `CCN(C)C1CCC(c2ccc3[nH]c(-c4cc(C)c5ncnn5c4)c(C(C)C)c3c2)CC1` (stereo not drawn) [Example 63], the negative-log IC50 (pIC50) in test [1] was 9.09; in test [2] it was 8.23; in test [3], 5.23.
For `COc1cc(-c2[nH]c3ccc(C4CCC(N5C[C@@H](C)O[C@@H](C)C5)CC4)cc3c2C(C)C)cn2ncnc12` (stereo partly drawn) [Example 40] the same measures were 9.12, 8.92 and 5.60.
On to `Cc1c(-c2[nH]c3ccc(C4CN(CCS(C)(=O)=O)CCO4)cc3c2C(C)C)cn2ncnc2c1C` (stereo not drawn) [Example 346], for which the pIC50 in test [1] is 7.60; in test [2] it was 7.62; in test [3] it was less than 4.30.
For `Cc1cc(-c2[nH]c3ccc(C4CCCN(CC(=O)N(C)C)C4)cc3c2C(C)C)cc(C)n1` (stereo not drawn) [Example 233] the same measures were 7.82, 7.25 and 5.87.
For `COc1cc(-c2[nH]c3ccc(C4CCC(N5CC(F)C5)CC4)cc3c2C(C)C)cn2ncnc12` (stereo not drawn) [Example 21] the same measures were 9.39, 8.92 and 5.62.
For `COc1cc(-c2[nH]c3ccc(C4CCC(NC5COC5)CC4)cc3c2C(C)C)cn2ncnc12` (stereo not drawn) [Example 90] the same measures were 9.32, 8.77 and 5.75.
For the molecule `CNC(=O)CN1CCOC(c2ccc3[nH]c(-c4cc(OC)c5ncnn5c4)c(C(C)C)c3c2)C1` (stereo not drawn) [Example 315], the pIC50 in test [1] is 8.05; in test [2], 7.59; in test [3], less than 4.30.
On to `Cc1cc(-c2[nH]c3ccc(C4CCCCC4)cc3c2C(C)C)cc(C)n1` [Example 469], for which the pIC50 in test [1] was 5.96; in test [2], 5.51; in test [3], 5.04.
Take `Cc1c(-c2[nH]c3ccc(C4CC(N)C4)cc3c2C(C)C)cn2ncnc2c1C` (stereo not drawn) [Example 541]: the pIC50 is 8.70 in test [1], 9.10 in test [2] and 5.24 in test [3].
For `Cc1c(-c2[nH]c3ccc(C4CCC(N5CC6(COC6)C5)CC4)cc3c2C(C)C)cn2ncnc2c1C` (stereo not drawn) [Example 95] the same measures were 8.70, 8.44 and 5.74.
For `Cc1c(-c2[nH]c3ccc(C4CN(CC(C)(C)O)C4)cc3c2C(C)C)cn2ncnc2c1C` [Example 557] the same measures were 8.05, 8.44 and 5.17.
Take `COc1cc(-c2[nH]c3ccc(C4CCCN(C)C4)cc3c2C(C)C)cn2ncnc12` (stereo not drawn) [Example 238]: the pIC50 in test [1] was 9.09; in test [2], 9.12; in test [3], 5.90.
For `CNC(=O)CN1CCCC(c2ccc3[nH]c(-c4cn5ncnc5c(C)c4C)c(C(C)C)c3c2)C1` (stereo not drawn) [Example 232] the same measures were 8.05, 8.09 and 4.79.
For `CNCC(=O)NC1CCC(c2ccc3[nH]c(-c4cc(C)nc(C)c4)c(C(C)C)c3c2)CC1` (single isomer, unassigned) [Example 130] the same measures were 8.30, 7.48 and 6.63.

The term pIC50 denotes −log10 of the IC50, conventionally taken in molar units. High values mean a small IC50, low ones a large IC50.
